Like-named read-outs stand apart in the source and are kept apart here.
Tests used:
Assay type in all cases: biochemical
ovine COX-1 = ovine COX-1 (Ovis aries (Sheep), UniProt P05979); test: In vitro COX assay (COX Inhibitor Screening Assay Kit), COX-1; conditions: 5 μM arachidonic acid
Protocol: (§1) COX activity was measured using a commercial kit (COX Inhibitor Screening Assay Kit—Cayman Chemical N. 560131) which includes both ovine COX-1 and human recombinant COX-2 enzymes. Inhibitors were pre-incubated with either ovine COX-1 or human COX-2 in order to screen isozyme-specific inhibition. Differently than described in the kit protocol, the reaction was carried out in the presence of 5 μM arachidonic acid while for the blank sample (no activity) the two enzymes were inactivated for 40 minutes at 100° C. It was then measured the amount of PGF2α produced by reduction with SnCl2 of COX-derived PGH2, via enzyme immunoassay (EIA) using a PG-specific antibody and competing with a PG-acetylcholinesterase conjugate.
(§2) Absorbance was measured at 412 nm with a Tecan Infinite M200 plate reader and data were processed according to manufacturer's instructions.
(§3) The median inhibitory concentrations (IC50) were determined by non-linear regression analysis of the Log [concentration]/response curves generated with mean replicate values using a four parameter Hill equation curve fitting with GraphPad Prism 5 (GraphPad Software Inc., CA-USA).

Rat FAAH = Rat FAAH (Rattus norvegicus (Rat), UniProt P97612); test: In vitro rat FAAH radiometric assay; conditions: rat brain homogenate; means of ≧3 experiments in duplicate
Rat FAAH, sequence (P97612 whole entry): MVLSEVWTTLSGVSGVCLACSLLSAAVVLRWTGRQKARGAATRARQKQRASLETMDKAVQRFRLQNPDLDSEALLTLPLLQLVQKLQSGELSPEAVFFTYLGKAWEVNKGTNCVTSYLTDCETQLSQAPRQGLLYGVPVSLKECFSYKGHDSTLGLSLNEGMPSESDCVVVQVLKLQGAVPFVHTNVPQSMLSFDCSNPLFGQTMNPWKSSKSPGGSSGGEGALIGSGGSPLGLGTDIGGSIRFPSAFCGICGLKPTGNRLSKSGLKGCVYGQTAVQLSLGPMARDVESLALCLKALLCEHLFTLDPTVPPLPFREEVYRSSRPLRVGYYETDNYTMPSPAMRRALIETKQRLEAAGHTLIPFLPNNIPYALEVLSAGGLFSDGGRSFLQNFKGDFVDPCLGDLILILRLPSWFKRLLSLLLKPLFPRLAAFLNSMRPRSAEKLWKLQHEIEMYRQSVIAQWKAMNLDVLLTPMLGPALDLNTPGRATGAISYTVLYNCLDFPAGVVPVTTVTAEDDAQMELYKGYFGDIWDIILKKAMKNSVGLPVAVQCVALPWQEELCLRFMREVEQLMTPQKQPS
Protocol: In Vitro Rat FAAH Radiometric Assay
Rat FAAH was prepared from male Sprague Dawley rat brains, homogenized in a potter in 20 mM of Tris HCl pH 7.4, 0.32 M sucrose.
After 10 minutes of pre-incubation with test compounds, the reaction was started by adding of 50 μL of substrate and incubating for 30 min at 37° C. The substrate was prepared in assay buffer in order to achieve the final concentration of 1 μM arachidonoyl ethanolamide (Cayman Chemical N. 90050) and 0.6 nM anandamide [ethanolamine-1-^3H](American Radiolabeled Chemicals Inc., ART. 0626, conc. 1 mCi/mL, S.A. 60 Ci/mmol). The reaction was stopped by adding cold 1:1 CHCl3/MeOH. After 10 minutes of centrifugation (845×g at 4° C.) 600 μL of aqueous phase were transferred into scintillation vials previously filled with 3 mL of scintillation fluid (Ultima Gold™, Perkin Elmer Inc., Cat. 6013329). Radioactivity was measured by liquid scintillation counting (MicroBeta2 LumiJET Perkin Elmer Inc.).
as §3

human FAAH-1 = human FAAH-1 (Homo sapiens (Human), UniProt O00519); test: In vitro human FAAH fluorescent assay; conditions: human FAAH-1 membrane preparation from HEK-293; means of ≧3 experiments
human FAAH-1, sequence (O00519 whole entry): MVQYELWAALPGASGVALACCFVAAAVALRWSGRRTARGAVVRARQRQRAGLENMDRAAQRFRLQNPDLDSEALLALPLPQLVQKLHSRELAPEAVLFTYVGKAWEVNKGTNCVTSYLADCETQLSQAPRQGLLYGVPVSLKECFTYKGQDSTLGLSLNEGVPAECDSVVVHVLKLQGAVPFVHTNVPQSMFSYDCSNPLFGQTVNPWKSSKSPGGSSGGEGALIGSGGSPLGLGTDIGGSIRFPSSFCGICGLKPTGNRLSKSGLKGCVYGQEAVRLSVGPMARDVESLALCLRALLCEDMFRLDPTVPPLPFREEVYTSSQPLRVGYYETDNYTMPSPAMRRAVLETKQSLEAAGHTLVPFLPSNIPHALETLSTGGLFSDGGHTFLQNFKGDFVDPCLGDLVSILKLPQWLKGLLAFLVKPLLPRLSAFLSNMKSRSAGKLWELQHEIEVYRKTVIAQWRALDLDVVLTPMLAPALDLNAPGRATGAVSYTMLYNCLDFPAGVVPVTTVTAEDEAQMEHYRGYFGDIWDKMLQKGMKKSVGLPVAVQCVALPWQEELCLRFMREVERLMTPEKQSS
Protocol: In Vitro Human FAAH Fluorescent Assay
Human recombinant FAAH was obtained from a HEK-293 FAAH-1 overexpressing stable cell line. Cells were grown in DMEM medium containing 10% FBS, 1% pen/strep, 1% glutamine and 500 μg/mL G418. To obtain membrane preparation cells were scraped off with cold phosphate-buffered saline (PBS) and collected by centrifugation (500×g, 10 minutes, 4° C.); the cell pellet was re-suspended in 20 mM Tris-HCl pH 7.4, 0.32 M sucrose, disrupted by sonication (10 pulses, 5 times) and centrifuged (800×g, 15 minutes, 4° C.); the collected supernatant was centrifuged at 105,000×g for 1 h at 4° C. and the pellet was re-suspended in PBS.
The background (no activity) samples were prepared using 180 μL of assay buffer without human FAAH-1 and 10 μL of DMSO. The reaction was then started by the addition of 10 μL of substrate (AMC arachidonyl amide, N. 10005098, Cayman Chemical) dissolved in ethanol and used at a final concentration of 2 μM. The reaction was carried out for 30 minutes at 37° C. and fluorescence was measured with a Tecan Infinite M200 nanoquant plate reader (excitation wavelength 350 nm/emission wavelength 460 nm).
as §3

human recombinant COX-2 = human recombinant COX-2 (Homo sapiens (Human), UniProt P35354); test: In vitro COX assay (COX Inhibitor Screening Assay Kit), COX-2
human recombinant COX-2, sequence (P35354 18-604): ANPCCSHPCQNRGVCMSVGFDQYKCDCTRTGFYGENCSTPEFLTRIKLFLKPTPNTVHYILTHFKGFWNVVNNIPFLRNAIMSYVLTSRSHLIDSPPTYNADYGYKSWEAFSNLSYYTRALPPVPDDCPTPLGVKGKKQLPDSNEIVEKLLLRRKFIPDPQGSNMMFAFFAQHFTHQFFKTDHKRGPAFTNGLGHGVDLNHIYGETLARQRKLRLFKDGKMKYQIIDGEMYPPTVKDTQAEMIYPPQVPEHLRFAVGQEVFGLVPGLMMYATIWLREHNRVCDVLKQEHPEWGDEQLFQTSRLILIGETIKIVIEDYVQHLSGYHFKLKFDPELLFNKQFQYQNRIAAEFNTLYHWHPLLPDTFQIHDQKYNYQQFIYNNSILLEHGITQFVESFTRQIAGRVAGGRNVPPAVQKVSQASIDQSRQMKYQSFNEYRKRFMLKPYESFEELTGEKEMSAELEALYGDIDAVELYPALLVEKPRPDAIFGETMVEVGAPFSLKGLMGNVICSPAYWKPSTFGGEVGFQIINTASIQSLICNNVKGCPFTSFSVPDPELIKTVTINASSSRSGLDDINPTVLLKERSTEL
Protocol: as §1, §2, §3

[1] = 5 μM arachidonic acid, read-out: human COX-2 IC50

ovine COX-1, sequence (P05979 25-600): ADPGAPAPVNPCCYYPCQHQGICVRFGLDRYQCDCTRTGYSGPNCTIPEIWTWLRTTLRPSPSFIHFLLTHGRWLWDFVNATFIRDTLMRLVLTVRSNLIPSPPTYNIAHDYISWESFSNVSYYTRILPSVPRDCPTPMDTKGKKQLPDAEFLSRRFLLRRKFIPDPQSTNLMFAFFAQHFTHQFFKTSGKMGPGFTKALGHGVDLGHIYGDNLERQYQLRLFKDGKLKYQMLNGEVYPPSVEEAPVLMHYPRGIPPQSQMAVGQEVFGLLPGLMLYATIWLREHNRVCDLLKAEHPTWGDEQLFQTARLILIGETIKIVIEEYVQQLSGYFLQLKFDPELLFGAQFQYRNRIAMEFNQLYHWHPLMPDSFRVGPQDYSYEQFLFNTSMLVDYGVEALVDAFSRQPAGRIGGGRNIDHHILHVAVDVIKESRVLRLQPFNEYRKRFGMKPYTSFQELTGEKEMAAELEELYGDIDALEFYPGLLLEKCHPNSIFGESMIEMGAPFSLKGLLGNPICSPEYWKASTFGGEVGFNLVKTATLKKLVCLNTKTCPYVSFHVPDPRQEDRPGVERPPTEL

Compound `CCCCCCNC(=O)Oc1cccc(-c2ccc(C(C)C(=O)O)cc2F)c1` (single isomer, unassigned; (+)) [Example 20, (+)-2-[3-fluoro-4-[3-(hexylcarbamoyloxy)phenyl]phenyl]propanoic acid] has an IC50 (ovine COX-1) of 0.01 nM.
In the case of `CCCCCCNC(=O)Oc1cccc(-c2ccc(C(C)C(=O)O)cc2F)c1` (single isomer, unassigned; (-)) [Example 19, (−)-2-[3-fluoro-4-[3-(hexylcarbamoyloxy)phenyl]phenyl]propanoic acid], the IC50 (ovine COX-1) is reported as 13000 nM.
For `CC(C(=O)O)c1ccc(-c2cccc(OC(=O)NC3CCCCC3)c2)c(F)c1` (stereo not shown) [Example 1, 2-[4-[3-(cyclohexylcarbamoyloxy)phenyl]-3-fluoro-phenyl]propanoic acid], the IC50 (Rat FAAH) was 8200 nM, the IC50 (human FAAH-1) was 1800 nM and the IC50 (ovine COX-1) was 7900 nM. For the same compound, the IC50 (human recombinant COX-2) was greater than 30000 nM.
`CC(C(=O)O)c1ccc(-c2cccc(OC(=O)NC3CCCC3)c2)c(F)c1` (stereo not shown) [Example 2, 2-[4-[3-(cyclopentylcarbamoyloxy)phenyl]-3-fluoro-phenyl]propanoic acid] gave an IC50 (Rat FAAH) of 4800 nM, an IC50 (human FAAH-1) of 1800 nM and an IC50 (ovine COX-1) of 4400 nM. For the same compound, the IC50 (human recombinant COX-2) was greater than 30000 nM.
With `CC(C)CNC(=O)Oc1cccc(-c2ccc(C(C)C(=O)O)cc2F)c1` (stereo not shown) [Example 3, 2-[3-fluoro-4-[3-(isobutylcarbamoyloxy)phenyl]phenyl]propanoic acid] the IC50 (Rat FAAH) was 5600 nM, the IC50 (human FAAH-1) was 1600 nM and the IC50 (ovine COX-1) was 8200 nM. It also gave an IC50 (human recombinant COX-2) greater than 30000 nM.
`CC(C(=O)O)c1ccc(-c2cccc(OC(=O)NCC3CCCCC3)c2)c(F)c1` (stereo not shown) [Example 4, 2-[4-[3-(cyclohexylmethylcarbamoyloxy)phenyl]-3-fluoro-phenyl]propanoic acid] gave an IC50 (Rat FAAH) of 360 nM, an IC50 (human FAAH-1) of 280 nM and an IC50 (ovine COX-1) of 600 nM. It also gave an IC50 (human recombinant COX-2) greater than 30000 nM.
`CC(C(=O)O)c1ccc(-c2cccc(OC(=O)NCCC3CCCCC3)c2)c(F)c1` (stereo not shown) [Example 5, 2-[4-[3-(2-cyclohexylethylcarbamoyloxyl)phenyl]-3-fluoro-phenyl]propanoic acid] showed an IC50 (Rat FAAH) of 18 nM, an IC50 (human FAAH-1) of 9 nM and an IC50 (ovine COX-1) of 150 nM. The IC50 (human recombinant COX-2; [1]) was 11000 nM.
Work on `CC(C(=O)O)c1ccc(-c2cccc(OC(=O)NCc3ccccc3)c2)c(F)c1` (stereo not shown) [Example 6, 2-[4-[3-(benzylcarbamoyloxy)phenyl]-3-fluoro-phenyl]propanoicacid] yielded an IC50 (Rat FAAH) of 4200 nM, an IC50 (human FAAH-1) of 7200 nM and an IC50 (ovine COX-1) of 1300 nM. It also gave an IC50 (human recombinant COX-2) greater than 30000 nM.
Compound `CC(C(=O)O)c1ccc(-c2cccc(OC(=O)NCCc3ccccc3)c2)c(F)c1` (stereo not shown) [Example 7, 2-[3-fluoro-4-[3-(phenethylcarbamoyloxy)phenyl]phenyl]propanoic acid] has an IC50 (Rat FAAH) of 170 nM, an IC50 (human FAAH-1) of 70 nM and an IC50 (ovine COX-1) of 6300 nM. The IC50 (human recombinant COX-2) was greater than 30000 nM.
`CC(C(=O)O)c1ccc(-c2cccc(OC(=O)NCCCc3ccccc3)c2)c(F)c1` (stereo not shown) [Example 8, 2-[3-fluoro-4-[3-(3-phenylpropylcarbamoyloxyl)phenyl]phenyl]propanoic acid] gave an IC50 (Rat FAAH) of 90 nM, an IC50 (human FAAH-1) of 22 nM and an IC50 (ovine COX-1) of 580 nM. For the same compound, the IC50 (human recombinant COX-2; [1]) was 6200 nM.
`CC(C(=O)O)c1ccc(-c2cccc(OC(=O)NCCCCc3ccccc3)c2)c(F)c1` (stereo not shown) [Example 9, 2-[3-fluoro-4-[3-(4-phenylbutylcarbamoyloxyl)phenyl]phenyl]propanoic acid] gave an IC50 (Rat FAAH) of 27 nM, an IC50 (human FAAH-1) of 13 nM and an IC50 (ovine COX-1) of 3700 nM. The IC50 (human recombinant COX-2) was greater than 30000 nM.
For `CCCCNC(=O)Oc1cccc(-c2ccc(C(C)C(=O)O)cc2F)c1` (stereo not shown) [Example 10, 2-[4-[3-(butylcarbamoyloxy)phenyl]-3-fluoro-phenyl]propanoic acid], the IC50 (Rat FAAH) was 7000 nM, the IC50 (human FAAH-1) was 1500 nM and the IC50 (ovine COX-1) was 260 nM. For the same compound, the IC50 (human recombinant COX-2) was greater than 30000 nM.
With `CCCCCNC(=O)Oc1cccc(-c2ccc(C(C)C(=O)O)cc2F)c1` (stereo not shown) [Example 11, 2-[3-fluoro-4-[3-(pentylcarbamoyloxy)phenyl]phenyl]propanoic acid] the IC50 (Rat FAAH) was 570 nM, the IC50 (human FAAH-1) was 92 nM and the IC50 (ovine COX-1) was 20 nM. The IC50 (human recombinant COX-2; [1]) was 160 nM.
`CCCCCCCNC(=O)Oc1cccc(-c2ccc(C(C)C(=O)O)cc2F)c1` (stereo not shown) [Example 13, 2-[3-fluoro-4-[3-(heptylcarbamoyloxy)phenyl]phenyl]propanoic acid] was tested, and the IC50 (Rat FAAH) was 11 nM, the IC50 (human FAAH-1) was 6 nM and the IC50 (ovine COX-1) was 370 nM. It also gave an IC50 (human recombinant COX-2; [1]) of 320 nM.
`CCCCCCCCNC(=O)Oc1cccc(-c2ccc(C(C)C(=O)O)cc2F)c1` (stereo not shown) [Example 14, 2-[3-fluoro-4-[3-(octylcarbamoyloxy)phenyl]phenyl]propanoic acid] showed an IC50 (Rat FAAH) of 2.6 nM, an IC50 (human FAAH-1) of 4 nM and an IC50 (ovine COX-1) of 990 nM. For the same compound, the IC50 (human recombinant COX-2; [1]) was 29000 nM.
`CCCCCCNC(=O)Oc1cccc(-c2ccc(C(C)CO)cc2F)c1` (stereo not shown) [Example 15, [3-[2-fluoro-4-(2-hydroxy-1-methyl-ethyl)phenyl]phenyl]N-hexylcarbamate] gave an IC50 (Rat FAAH) of 3.3 nM, an IC50 (human FAAH-1) of 9.1 nM and an IC50 (ovine COX-1) of 1100 nM. It also gave an IC50 (human recombinant COX-2) greater than 30000 nM.
For `CCCCCCNC(=O)Oc1cccc(-c2ccc(CC(=O)O)cc2F)c1` [Example 16, 2-[3-fluoro-4-[3-(hexylcarbamoyloxy)phenyl]phenyl]acetic acid], the IC50 (Rat FAAH) was 63 nM, the IC50 (human FAAH-1) was 16 nM and the IC50 (ovine COX-1) was 2100 nM. The IC50 (human recombinant COX-2; [1]) was 240 nM.
In the case of `CCCCCCNC(=O)Oc1ccccc1-c1ccc(C(C)C(=O)O)cc1F` (stereo not shown) [Example 17, 2-[3-fluoro-4-[2-(hexylcarbamoyloxy)phenyl]phenyl]propanoic acid], the IC50 (Rat FAAH) is reported as 2200 nM, the IC50 (human FAAH-1) is reported as 740 nM and the IC50 (ovine COX-1) is reported as 720 nM. For the same compound, the IC50 (human recombinant COX-2) was greater than 30000 nM.
`CCCCCCOC(=O)Nc1cccc(-c2ccc(C(C)C(=O)O)cc2F)c1` (stereo not shown) [Example 18, 2-[3-fluoro-4-[3-(hexoxycarbonylamino)phenyl]phenyl]propanoic acid] gave an IC50 (Rat FAAH) of 15000 nM, an IC50 (human FAAH-1) of 21000 nM and an IC50 (ovine COX-1) of 30 nM. It also gave an IC50 (human recombinant COX-2; [1]) of 170 nM.

Source: patent US9630914B2, “Multitarget FAAH and COX inhibitors and therapeutical uses thereof” (FONDAZIONE ISTITUTO ITALIANO DI TECNOLOGIA, priority 2012, dated 2017)
